Test results published in BigSolDB 2.1.

CC(=O)c1ccc2ccc(C)cc2c1
solubility (mole fraction)
Conditions	in n-dodecane	in n-heptane	in n-octane
273.15 K	0.00013	0.000115	0.000114
275.15 K	0.000135	0.000124	–
276.15 K	–	–	0.00013
277.15 K	–	0.000138	–
278.15 K	0.000158	–	–
279.15 K	–	0.000157	0.000152
281.15 K	0.000195	–	0.000172
282.15 K	–	0.000182	–
283.15 K	0.000205	–	–
284.15 K	–	–	0.000194
286.15 K	0.000239	0.000228	–
287.15 K	–	–	0.000231
289.15 K	0.000287	0.000268	0.000254
291.15 K	–	0.000297	–
292.15 K	0.000339	–	0.000291
293.15 K	–	0.000344	–
295.15 K	0.00041	–	0.000343
297.15 K	0.000454	–	0.000387
300.15 K	0.000526	–	–

CC(=O)c1ccc2cc(C)ccc2c1
Conditions	solubility (mole fraction)
in n-dodecane, 273.15 K	0.00876
in n-dodecane, 279.65 K	0.0122
in n-dodecane, 283.15 K	0.0146
in n-dodecane, 288.15 K	0.0188
in n-dodecane, 291.15 K	0.022
in n-dodecane, 293.65 K	0.0254
in n-dodecane, 296.65 K	0.0291
in n-dodecane, 299.15 K	0.0339
in n-dodecane, 301.65 K	0.037
in n-dodecane, 305.15 K	0.046
in n-dodecane, 308.15 K	0.0535
in n-dodecane, 311.15 K	0.0683
in n-heptane, 273.15 K	0.00938
in n-heptane, 277.15 K	0.0104
in n-heptane, 279.15 K	0.0114
in n-heptane, 282.15 K	0.013
in n-heptane, 285.15 K	0.0151
in n-heptane, 288.15 K	0.0177
in n-heptane, 291.15 K	0.0217
in n-heptane, 294.15 K	0.0258
in n-heptane, 297.15 K	0.0293
in n-heptane, 299.65 K	0.0345
in n-heptane, 303.15 K	0.0428
in n-heptane, 306.15 K	0.0484
in n-heptane, 309.15 K	0.0566
in n-heptane, 311.15 K	0.0629
in n-heptane, 313.15 K	0.0716
in n-heptane, 316.15 K	0.0852
in n-heptane, 319.15 K	0.105
in n-octane, 273.15 K	0.00895
in n-octane, 277.65 K	0.0105
in n-octane, 283.15 K	0.0139
in n-octane, 287.15 K	0.0172
in n-octane, 291.15 K	0.0211
in n-octane, 293.15 K	0.0239
in n-octane, 297.15 K	0.029
in n-octane, 301.15 K	0.0371
in n-octane, 303.15 K	0.0417
in n-octane, 306.65 K	0.0487
in n-octane, 311.15 K	0.0623
in n-octane, 314.15 K	0.0755
in n-octane, 316.15 K	0.0861
in n-octane, 319.15 K	0.106
